{
  "source": "ChEMBL document CHEMBL1201862",
  "about": "“PubChem BioAssay data set” (2004)",
  "key": {"[1]": {"test": "MIN6 cell viability loss – mouse insulinoma, cytotoxicity control, dose response (AID 2122);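 note: confirmatory high-throughput counterscreen run to flag cytotoxic compounds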", "type": "functional"}, "[2]": {"test": "non-specific 3'UTR reporter inhibition in Clone20-Shn3RL – cell-based, Renilla luciferase, cherry-picked, counter-screen for Shn3 inhibitor project, dose response (AID 624133)", "type": "functional"}, "[3]": {"test": "decrease of insulin promoter-GFP reporter – imaging, high-content screening, mouse beta cells (AID 1628)", "type": "functional", "conditions": "MIN6"}, "[4]": {"test": "loss of viability in HepG2 cells – cell-based, CellTiter-Glo, cherry-picked, cytotoxicity control for Shn3 inhibitor project, dose response (AID 624134)", "type": "functional"}, "[5]": {"test": "reduction of Shn3 3'UTR-driven luciferase in osteoblasts – cell-based, Clone20 osteoblasts, firefly luciferase, cherry-picked, dose response (AID 624132)", "type": "functional"}, "[6]": {"molecular_target": "T1, Adenosylmethionine-8-amino-7-oxononanoate aminotransferase (Mycobacterium tuberculosis, UniProt P9WQ81)", "T1 sequence (P9WQ81 whole entry)": "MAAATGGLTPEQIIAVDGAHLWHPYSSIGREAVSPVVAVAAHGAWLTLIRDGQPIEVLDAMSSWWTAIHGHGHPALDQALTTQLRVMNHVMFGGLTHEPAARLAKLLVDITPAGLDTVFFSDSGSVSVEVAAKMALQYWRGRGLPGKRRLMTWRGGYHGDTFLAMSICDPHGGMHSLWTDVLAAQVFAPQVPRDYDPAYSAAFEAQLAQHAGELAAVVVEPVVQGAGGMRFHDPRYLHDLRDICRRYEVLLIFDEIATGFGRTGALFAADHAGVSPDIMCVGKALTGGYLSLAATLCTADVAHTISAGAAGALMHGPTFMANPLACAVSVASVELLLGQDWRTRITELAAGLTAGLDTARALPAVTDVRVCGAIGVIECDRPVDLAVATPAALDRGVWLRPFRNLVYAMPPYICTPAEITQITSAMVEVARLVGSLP", "test": "Mycobacterium tuberculosis BioA enzyme inhibitor Measured in Biochemical System Using Plate Reader - 2163-02_Inhibitor_Dose_CherryPick_Activity.", "type": "functional, Mycobacterium tuberculosis UT205"}, "Cytochrome P450 2C19": {"molecular_target": "Cytochrome P450 2C19 (Homo sapiens, UniProt P33261)", "sequence (P33261 whole entry)": "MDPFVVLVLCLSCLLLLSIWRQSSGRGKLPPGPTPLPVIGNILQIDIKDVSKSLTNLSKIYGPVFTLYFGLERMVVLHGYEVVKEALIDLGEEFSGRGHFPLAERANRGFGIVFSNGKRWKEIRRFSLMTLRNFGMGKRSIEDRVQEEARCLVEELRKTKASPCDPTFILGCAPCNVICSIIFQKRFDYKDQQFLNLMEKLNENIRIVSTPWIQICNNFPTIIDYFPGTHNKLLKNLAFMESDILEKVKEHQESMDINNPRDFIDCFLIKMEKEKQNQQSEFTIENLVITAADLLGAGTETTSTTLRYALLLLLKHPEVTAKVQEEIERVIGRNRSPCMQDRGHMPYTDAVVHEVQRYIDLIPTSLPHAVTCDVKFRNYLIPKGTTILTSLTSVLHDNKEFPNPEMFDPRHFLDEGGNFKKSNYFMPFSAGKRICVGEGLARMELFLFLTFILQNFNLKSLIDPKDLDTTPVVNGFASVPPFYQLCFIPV", "test": "Cytochrome panel assay with activity outcomes. Panel member name: p450-cyp2c19 Compounds with AC50 equal or less than 10 uM are considered active", "type": "functional", "conditions": "read-out: AC50"}, "Cytochrome P450 3A4 [7]": {"molecular_target": "T2, Cytochrome P450 3A4 (Homo sapiens, UniProt P08684)", "T2 sequence (P08684 whole entry)": "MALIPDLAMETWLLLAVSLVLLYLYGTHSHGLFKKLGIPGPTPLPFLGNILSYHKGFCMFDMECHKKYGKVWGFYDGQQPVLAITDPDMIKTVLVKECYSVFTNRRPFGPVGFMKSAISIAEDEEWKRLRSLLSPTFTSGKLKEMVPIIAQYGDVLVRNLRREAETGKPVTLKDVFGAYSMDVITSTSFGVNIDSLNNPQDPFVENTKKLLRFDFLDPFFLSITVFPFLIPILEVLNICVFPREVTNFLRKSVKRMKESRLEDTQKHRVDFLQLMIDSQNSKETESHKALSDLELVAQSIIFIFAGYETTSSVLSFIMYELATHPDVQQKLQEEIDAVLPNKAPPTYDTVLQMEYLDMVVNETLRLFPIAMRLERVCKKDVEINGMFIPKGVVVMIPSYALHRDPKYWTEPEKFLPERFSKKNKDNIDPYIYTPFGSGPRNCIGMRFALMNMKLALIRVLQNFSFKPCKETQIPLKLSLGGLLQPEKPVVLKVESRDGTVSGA"}, "Cytochrome P450 1A2": {"molecular_target": "T3, Cytochrome P450 1A2 (Homo sapiens, UniProt P05177)", "T3 sequence (P05177 whole entry)": "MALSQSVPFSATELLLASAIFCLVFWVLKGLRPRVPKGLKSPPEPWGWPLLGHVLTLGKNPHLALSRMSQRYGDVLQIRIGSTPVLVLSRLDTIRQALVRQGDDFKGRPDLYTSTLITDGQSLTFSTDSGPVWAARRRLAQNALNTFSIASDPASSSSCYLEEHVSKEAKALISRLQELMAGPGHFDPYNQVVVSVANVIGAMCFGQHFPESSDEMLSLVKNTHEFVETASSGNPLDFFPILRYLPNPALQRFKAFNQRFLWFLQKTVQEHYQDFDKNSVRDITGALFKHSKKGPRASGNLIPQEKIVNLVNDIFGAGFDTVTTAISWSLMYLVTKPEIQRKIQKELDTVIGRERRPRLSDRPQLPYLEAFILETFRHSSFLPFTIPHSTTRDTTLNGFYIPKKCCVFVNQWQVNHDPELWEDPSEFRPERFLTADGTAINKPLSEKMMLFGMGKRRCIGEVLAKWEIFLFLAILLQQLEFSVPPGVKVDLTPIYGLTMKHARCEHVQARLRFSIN"}, "Cytochrome P450 2C9": {"molecular_target": "Cytochrome P450 2C9 (Homo sapiens, UniProt P11712)", "sequence (P11712 whole entry)": "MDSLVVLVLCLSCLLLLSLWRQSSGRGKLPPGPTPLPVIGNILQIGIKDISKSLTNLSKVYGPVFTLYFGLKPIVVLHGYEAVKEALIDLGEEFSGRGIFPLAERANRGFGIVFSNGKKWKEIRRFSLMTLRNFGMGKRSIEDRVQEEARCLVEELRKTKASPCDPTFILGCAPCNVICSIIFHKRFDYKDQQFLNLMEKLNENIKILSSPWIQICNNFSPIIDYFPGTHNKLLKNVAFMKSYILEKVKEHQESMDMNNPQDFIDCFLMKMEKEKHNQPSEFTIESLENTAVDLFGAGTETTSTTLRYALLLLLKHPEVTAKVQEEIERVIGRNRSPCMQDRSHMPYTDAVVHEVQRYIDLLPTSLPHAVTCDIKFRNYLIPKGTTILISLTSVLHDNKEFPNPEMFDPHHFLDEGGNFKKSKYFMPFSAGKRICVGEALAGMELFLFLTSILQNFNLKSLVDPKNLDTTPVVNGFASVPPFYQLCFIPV"}, "[8]": {"test": "Vero E6 cell cytotoxicity, dose response, cytotoxicity control for non-replicating M. tuberculosis project, secondary assay (AID 492998)", "type": "functional, VeroE6", "conditions": "Vero C1008"}, "[9]": {"test": "THP-1 cell cytotoxicity, dose response, cytotoxicity control for non-replicating M. tuberculosis project (AID 489025)", "type": "functional"}, "cells [10]": {"test": "cells", "type": "functional"}, "Cytochrome P450 2D6": {"molecular_target": "Cytochrome P450 2D6 (Homo sapiens, UniProt P10635)", "sequence (P10635 whole entry)": "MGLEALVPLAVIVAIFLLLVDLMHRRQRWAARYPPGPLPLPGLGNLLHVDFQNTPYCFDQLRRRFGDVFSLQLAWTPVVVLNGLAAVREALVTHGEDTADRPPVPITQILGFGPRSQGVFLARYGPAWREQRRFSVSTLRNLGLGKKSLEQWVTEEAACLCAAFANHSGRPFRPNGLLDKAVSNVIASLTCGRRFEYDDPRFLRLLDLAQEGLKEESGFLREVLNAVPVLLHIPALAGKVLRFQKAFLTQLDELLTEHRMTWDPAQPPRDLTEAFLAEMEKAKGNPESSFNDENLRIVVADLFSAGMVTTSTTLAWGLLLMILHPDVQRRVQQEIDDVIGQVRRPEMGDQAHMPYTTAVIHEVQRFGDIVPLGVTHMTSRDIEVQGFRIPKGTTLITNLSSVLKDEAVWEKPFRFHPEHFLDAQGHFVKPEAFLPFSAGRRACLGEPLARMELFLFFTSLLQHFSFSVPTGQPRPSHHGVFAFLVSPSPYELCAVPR"}, "SN12K1": {"tested_on": "SN12K1", "test": "cells", "type": "functional", "conditions": "Homo sapiens"}, "P388": {"tested_on": "P388", "test": "cells", "type": "functional", "conditions": "Mus musculus"}, "P388/ADR": {"tested_on": "P388/ADR", "test": "cells", "type": "functional", "conditions": "Mus musculus"}, "Cytochrome P450 3A4 [11]": {"molecular_target": "T2, Cytochrome P450 3A4", "remark": "listed apart in the source"}, "cells [12]": {"test": "cells", "type": "functional, cell-based"}, "cells [13]": {"test": "cells", "type": "functional, cell-based", "remark": "listed apart in the source"}, "[14]": {"test": "NIH3T3 cell viability loss – ATP luminescence, mouse fibroblasts, counter-screen, dose response (AID 2010);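 note: cells exposed to compound for about 90 hours before reading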", "type": "functional, cell-based"}, "[15]": {"test": "Trypanosoma cruzi growth suppression in host cells – NIH3T3 host cells, beta-gal luminescence, confirmation (AID 2044);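 note: intracellular parasites grown in NIH/3T3 mouse fibroblasts as host cells; luminescent beta-galactosidase reporter signal from transgenic T. cruzi replicating inside host cells; inhibitors lower the luminescence signal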", "type": "functional, cell-based"}, "[16]": {"test": "fluconazole-exposed Candida albicans growth modulators – fluorescence, retest, confirmation (AID 2467)", "type": "functional, cell-based"}, "[17]": {"test": "NIH-3T3 fibroblast cytotoxicity, dose response, cytotoxicity control, cell-based, fluorescence, Alamar Blue, secondary assay (AID 2327);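 note: NIH-3T3 mouse fibroblasts cultured with fluconazole at 8 µg/mL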", "type": "functional"}},
  "note": "Active and inactive are the calls of the source.",
  "data": [
    {"smiles": "Cn1c(=O)n(C)c2cc([N+](=O)[O-])c(N3CCN(S(=O)(=O)c4ccc(C(C)(C)C)cc4)CC3)cc21", "values": [
      {"measurement": "IC50", "setting": "[1]", "value": "4.02 µM (active)"},
      {"measurement": "AC50", "setting": "[2]", "value": "9.33 µM (active)"},
      {"measurement": "IC50", "setting": "[3]", "value": "2.73 µM (active)"},
      {"measurement": "AC50", "setting": "[4]", "value": "> 70 µM (inactive)"},
      {"measurement": "AC50", "setting": "[5]", "value": "3.53 µM (active)"}
    ]},
    {"smiles": "Cc1nc2nc(SCC(=O)NCCCN3CCOCC3)nn2c(C)c1Cc1ccccc1", "values": [
      {"measurement": "AC50", "setting": "[6]", "value": "5.43 µM (active)"}
    ]},
    {"smiles": "C[C@H](N[C@@H](C)CCc1ccccc1)[C@H](O)c1ccc(O)cc1", "values": [
      {"measurement": "AC50", "setting": "Cytochrome P450 2C19", "value": "10 µM (inconclusive)"},
      {"measurement": "AC50", "setting": "Cytochrome P450 3A4 [7]", "value": "inconclusive"}
    ]},
    {"smiles": "N#CCCn1c(=O)cnc2cnc(N3CCNCC3)nc21", "values": [
      {"measurement": "AC50", "setting": "Cytochrome P450 1A2", "value": "12.6 µM (inconclusive)"},
      {"measurement": "AC50", "setting": "Cytochrome P450 2C9", "value": "inconclusive"}
    ]},
    {"smiles": "CCOc1ccc(C(C)=O)cc1N1C(=O)C2C3C=CC(O3)C2C1=O", "note": "(stereo not given)", "values": [
      {"measurement": "AC50", "setting": "Cytochrome P450 2C19", "value": "39.8 µM (inconclusive)"},
      {"measurement": "AC50", "setting": "Cytochrome P450 2C9", "value": "inconclusive"}
    ]},
    {"smiles": "O=S(=O)(c1cccc2nsnc12)N1CCCC1", "values": [
      {"measurement": "AC50", "setting": "Cytochrome P450 1A2", "value": "14.1 µM (inconclusive)"},
      {"measurement": "AC50", "setting": "Cytochrome P450 3A4 [7]", "value": "inconclusive"}
    ]},
    {"smiles": "Cc1cc(C)c2nc(N=C(N)NC(=O)Nc3ccccc3)nc(C)c2c1", "values": [
      {"measurement": "CC50", "setting": "[8]", "value": "> 20 µM (active)"},
      {"measurement": "CC50", "setting": "[9]", "value": "> 40 µM (active)"},
      {"measurement": "IC50", "setting": "cells [10]", "value": "8.18 µM (active)"}
    ]},
    {"smiles": "CC(C)(C)n1ncc2c(=O)n(CC(=O)NCc3ccccc3Cl)cnc21", "values": [
      {"measurement": "AC50", "setting": "Cytochrome P450 2D6", "value": "11.2 µM (inconclusive)"},
      {"measurement": "AC50", "setting": "Cytochrome P450 2C9", "value": "inconclusive"}
    ]},
    {"smiles": "CC1=C(CC[C@H](C)CO)O[C@@H]2C[C@@H]3[C@H]4CC[C@H]5C[C@@H](O)CC[C@]5(C)[C@@H]4CC(=O)[C@@]3(C)[C@@H]12", "values": [
      {"measurement": "AC50", "setting": "Cytochrome P450 3A4 [7]", "value": "inconclusive"}
    ]},
    {"smiles": "Cc1ccc(-c2nn3c(C)nnc3s2)cc1NCc1c(F)cccc1Cl", "values": [
      {"measurement": "IC50", "setting": "[1]", "value": "5.76 µM (active)"},
      {"measurement": "IC50", "setting": "[3]", "value": "3.44 µM (active)"}
    ]},
    {"smiles": "CC(Oc1ccc2c(-c3ccccc3)cc(=O)oc2c1)C(=O)NCc1ccccn1", "note": "(stereo not given)", "values": [
      {"measurement": "AC50", "setting": "[6]", "value": "8.99 µM (active)"}
    ]},
    {"smiles": "COc1ccc2c(c1)-c1nn(CCCN(C)C)c3ccc([N+](=O)[O-])c(c13)N2", "values": [
      {"measurement": "GI50", "setting": "SN12K1", "value": "0.119 µM (active)"},
      {"measurement": "GI50", "setting": "P388", "value": "0.163 µM (active)"},
      {"measurement": "GI50", "setting": "P388/ADR", "value": "0.281 µM (active)"}
    ]},
    {"smiles": "O=c1[nH]n(-c2cccc3cccnc23)c(=O)c2ccccc12", "values": [
      {"measurement": "AC50", "setting": "Cytochrome P450 1A2", "value": "6.31 µM (inconclusive)"},
      {"measurement": "AC50", "setting": "Cytochrome P450 3A4 [11]", "value": "25.1 µM (inconclusive)"},
      {"measurement": "AC50", "setting": "Cytochrome P450 2C9", "value": "inconclusive"}
    ]},
    {"smiles": "CC(=O)Nc1ccc(S(=O)(=O)Nc2ccc(S(=O)(=O)Nc3nccs3)cc2)cc1", "values": [
      {"measurement": "EC50", "setting": "cells [12]", "value": "> 350 µM (not active)"},
      {"measurement": "EC50", "setting": "cells [13]", "value": "> 350 µM (not active)"}
    ]},
    {"smiles": "C(#Cc1ccccc1)C[N+]1(CC#Cc2ccccc2)CCCCC1", "values": [
      {"measurement": "EC50", "setting": "[14]", "value": "> 60 µM (not active)"},
      {"measurement": "IC50", "setting": "[1]", "value": "< 0.25 µM (active)"},
      {"measurement": "EC50", "setting": "[15]", "value": "1.88 µM (active)"},
      {"measurement": "IC50", "setting": "[3]", "value": "< 0.25 µM (active)"},
      {"measurement": "EC50", "setting": "[16]", "value": "> 38 µM (not active)"},
      {"measurement": "EC50", "setting": "[17]", "value": "> 160 µM (inactive)"}
    ]},
    {"smiles": "CCCn1nc2cc(C(=O)NC3CCCc4ccccc43)ccc2c1OCC", "note": "(stereo not given)", "values": [
      {"measurement": "AC50", "setting": "Cytochrome P450 2D6", "value": "25.1 µM (inconclusive)"},
      {"measurement": "AC50", "setting": "Cytochrome P450 3A4 [11]", "value": "15.8 µM (inconclusive)"},
      {"measurement": "AC50", "setting": "Cytochrome P450 2C9", "value": "inconclusive"}
    ]}
  ]
}
